Results from PubChem BioAssay AID1845201 (Molecular Pharmacology Branch, DTP, NCI, 2023).
Several values for one entry are separate records, joined by “and”; a condition that tells them apart may be missing. Identical values can stand only once.

Tested on: COR L88 complex tumor spheroid viability
Experiment: Anticancer human tumor COR L88 cell line growth inhibition;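 note: compound exposure lasted 7 days before viability readout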;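 for viability, T/C: percent of DMSO vehicle-treated spheroids = 100%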
Details: for viability, T/C: stronger effect = lower value
In short: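 Complex spheroids of malignant cells with endothelial cells and mesenchymal stem cells; agents alone or combined, from near clinical Cmax (or 10 microM if unknown) down in half-log steps, 0.25% DMSO final.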

[1] = curve of first compound, second compound 30 pM
[2] = curve of first compound, second compound 94.9 pM
[3] = curve of first compound, second compound 0.0003 µM
[4] = curve of first compound, second compound 0.000949 µM
[5] = curve of first compound, second compound 0.003 µM
[6] = second compound 30 pM, first compound 0.0316 µM
[7] = second compound 30 pM, first compound 0.1 µM
[8] = second compound 30 pM, first compound 0.316 µM
[9] = second compound 30 pM, first compound 1 µM
[10] = second compound 30 pM, first compound 3.16 µM
[11] = second compound 30 pM, first compound 10 µM
[12] = second compound 94.9 pM, first compound 0.0316 µM
[13] = second compound 94.9 pM, first compound 0.1 µM
[14] = second compound 94.9 pM, first compound 0.316 µM
[15] = second compound 94.9 pM, first compound 1 µM
[16] = second compound 94.9 pM, first compound 3.16 µM
[17] = second compound 94.9 pM, first compound 10 µM
[18] = second compound 0.0003 µM, first compound 0.0316 µM
[19] = second compound 0.0003 µM, first compound 0.1 µM
[20] = second compound 0.0003 µM, first compound 0.316 µM
[21] = second compound 0.0003 µM, first compound 1 µM
[22] = second compound 0.0003 µM, first compound 3.16 µM
[23] = second compound 0.0003 µM, first compound 10 µM
[24] = second compound 0.000949 µM, first compound 0.0316 µM
[25] = second compound 0.000949 µM, first compound 0.1 µM
[26] = second compound 0.000949 µM, first compound 0.316 µM
[27] = second compound 0.000949 µM, first compound 1 µM
[28] = second compound 0.000949 µM, first compound 3.16 µM
[29] = second compound 0.000949 µM, first compound 10 µM
[30] = second compound 0.003 µM, first compound 0.0316 µM
[31] = second compound 0.003 µM, first compound 0.1 µM
[32] = second compound 0.003 µM, first compound 0.316 µM
[33] = second compound 0.003 µM, first compound 1 µM
[34] = second compound 0.003 µM, first compound 3.16 µM
[35] = second compound 0.003 µM, first compound 10 µM

COc1cc(C)[nH]c(=O)c1CN1CCc2c(Cl)cc(C(OC)C3COC3)c(Cl)c2C1=O (centres undefined) + COc1cc2c(cc1O)CCNC21CSC2c3c(OC(C)=O)c(C)c4c(c3C(COC1=O)N1C(O)C3Cc5cc(C)c(OC)c(O)c5C(C21)N3C)OCO4 was tested, and the IC50 [1] was > 10000 nM, the IC50 [2] was > 10000 nM and the IC50 [3] was < 31.6 nM. The IC50 [4] was < 31.6 nM, the IC50 [5] was < 31.6 nM and the viability, T/C [6] was 109%. The viability, T/C [7] was 98.7%, the viability, T/C [8] was 96.8% and the viability, T/C [9] was 91.4%. It also gave a viability, T/C [10] of 86.7%, a viability, T/C [11] of 83.2% and a viability, T/C [12] of 99.4%. It also gave a viability, T/C [13] of 84.2%, a viability, T/C [14] of 82.2% and a viability, T/C [15] of 86.2%. It also gave a viability, T/C [16] of 80.9%, a viability, T/C [17] of 80.9% and a viability, T/C [18] of 49.3%. For the same compound, the viability, T/C [19] was 41.2%, the viability, T/C [20] was 38% and the viability, T/C [21] was 36.3%. It also gave a viability, T/C [22] of 34.2%, a viability, T/C [23] of 31.3% and a viability, T/C [24] of 39.6%. For the same compound, the viability, T/C [25] was 47.4%, the viability, T/C [26] was 44.6% and the viability, T/C [27] was 37.7%. The viability, T/C [28] was 34.1%, the viability, T/C [29] was 18.3% and the viability, T/C [30] was 1.16%. For the same compound, the viability, T/C [31] was 1.08%, the viability, T/C [32] was 0.9% and the viability, T/C [33] was 1.24%. It also gave a viability, T/C [34] of 1.05% and a viability, T/C [35] of 1.71%.
In the case of [2H]c1nc(C)nc([2H])c1-c1cc(NC[C@@H](C)c2cccc3c(C(=O)NC)ccnc23)ncn1 + COc1cc2c(cc1O)CCNC21CSC2c3c(OC(C)=O)c(C)c4c(c3C(COC1=O)N1C(O)C3Cc5cc(C)c(OC)c(O)c5C(C21)N3C)OCO4, the IC50 [1] is reported as > 10000 nM, the IC50 [2] is reported as > 10000 nM and the IC50 [3] is reported as > 10000 nM. The IC50 [4] was 4450 nM, the IC50 [5] was < 31.6 nM and the viability, T/C [6] was 98.3%. For the same compound, the viability, T/C [7] was 98.8%, the viability, T/C [8] was 96.3% and the viability, T/C [9] was 105%. The viability, T/C [10] was 102%, the viability, T/C [11] was 98.3% and the viability, T/C [12] was 102%. The viability, T/C [13] was 100%, the viability, T/C [14] was 110% and the viability, T/C [15] was 101%. For the same compound, the viability, T/C [16] was 94.6%, the viability, T/C [17] was 88% and the viability, T/C [18] was 72.8%. For the same compound, the viability, T/C [19] was 68.8%, the viability, T/C [20] was 66.9% and the viability, T/C [21] was 73.3%. It also gave a viability, T/C [22] of 73.4%, a viability, T/C [23] of 69.6% and a viability, T/C [24] of 59%. The viability, T/C [25] was 58.7%, the viability, T/C [26] was 55.9% and the viability, T/C [27] was 57.4%. The viability, T/C [28] was 50.7%, the viability, T/C [29] was 45.8% and the viability, T/C [30] was 0.64%. For the same compound, the viability, T/C [31] was 0.73%, the viability, T/C [32] was 0.53% and the viability, T/C [33] was 0.45%. The viability, T/C [34] was 0.55% and the viability, T/C [35] was 1.03%.
For CC[C@@]1(O)C(=O)OCc2c1cc1n(c2=O)Cc2cc3c(CN(C)C)c(O)ccc3nc2-1, the viability, T/C (compound 0.00949 µM) was 76% [middle of 10 runs], the viability, T/C (compound 0.03 µM) was 55% [middle of 10 runs] and the viability, T/C (compound 0.0949 µM) was 52% [middle of 10 runs]. The viability, T/C (compound 0.3 µM) was 48.1% [middle of 10 runs], the IC50 (compound alone, run of 10/17/2019) was 45.7 nM [middle of 5 runs] and the IC50 (compound alone, run of 10/25/2019) was > 300 nM and 163 nM and 172 nM.
With COc1ccc([C@@H](O)c2cc(-c3ncnc4cc(N5CCOCC5)ccc34)c(F)cc2Cl)nn1 the viability, T/C (compound 0.0316 µM) was 108% and 105% and 101%, the viability, T/C (compound 0.1 µM) was 98.8% and 102% and 98.1% and the viability, T/C (compound 0.316 µM) was 103% and 93.9% and 104%. For the same compound, the viability, T/C (compound 1 µM) was 76.1% and 83% and 81.6%, the viability, T/C (compound 3.16 µM) was 56% and 64.4% and 54.8% and the viability, T/C (compound 10 µM) was 33.7% and 39% and 36.1%. The IC50 (curve of compound) was 4010 nM and 6100 nM.
With Cc1sc2c(c1C)C(c1ccc(Cl)cc1)=NC(CC(=O)Nc1ccc(O)cc1)c1nnc(C)n1-2 (centres undefined) the viability, T/C (compound 0.00949 µM) was 93.4% and 99.2% and 89.1%, the viability, T/C (compound 0.03 µM) was 94.7% and 94.8% and 84.9% and the viability, T/C (compound 0.0949 µM) was 103% and 94.4% and 85.7%. For the same compound, the viability, T/C (compound 0.3 µM) was 63.8% and 67.1% and 47.9%, the viability, T/C (compound 0.949 µM) was 37.4% and 33.8% and 21.4% and the viability, T/C (compound 3 µM) was 20.6% and 19.2% and 17.3%. The IC50 (curve of compound) was 534 nM and 543 nM and 283 nM.
With [2H]c1nc(C)nc([2H])c1-c1cc(NC[C@@H](C)c2cccc3c(C(=O)NC)ccnc23)ncn1 the viability, T/C (compound 0.0316 µM) was 101% and 94.7% and 105%, the viability, T/C (compound 0.1 µM) was 99.9% and 96.5% and 98.1% and the viability, T/C (compound 0.316 µM) was 109% and 101% and 102%. The viability, T/C (compound 1 µM) was 88.5% and 106% and 102%, the viability, T/C (compound 3.16 µM) was 92.1% and 95.2% and 96.4% and the viability, T/C (compound 10 µM) was 91.8% and 97.2% and 103%. For the same compound, the IC50 (curve of compound) was > 10000 nM.
With COc1cc(C)[nH]c(=O)c1CN1CCc2c(Cl)cc(C(OC)C3COC3)c(Cl)c2C1=O (centres undefined) the viability, T/C (compound 0.0316 µM) was 109% and 91.5% and 89.8%, the viability, T/C (compound 0.1 µM) was 100% and 89.6% and 97% and the viability, T/C (compound 0.316 µM) was 95.5% and 80.1% and 98.1%. The viability, T/C (compound 1 µM) was 89.2% and 76.7% and 91.4%, the viability, T/C (compound 3.16 µM) was 96.1% and 84.8% and 85.8% and the viability, T/C (compound 10 µM) was 92.2% and 75.5% and 90.1%. For the same compound, the IC50 (curve of compound) was > 10000 nM.
